Data taken from ChEMBL document CHEMBL4422621, “Novel chalcone and flavone derivatives as selective and dual inhibitors of the transport proteins ABCB1 and ABCG2” (Eur J Med Chem, 2019).
pIC50: −log10 of the molar value.

Tests used:
[1] = target: T1, Broad substrate specificity ATP-binding cassette transporter ABCG2 (Homo sapiens, UniProt Q9UNQ0); assay: (§1) Inhibition of ABCG2 (unknown origin) expressed in MDCK II BCRP cells assessed as effect on heophorbide A accumulation at 5 to 10 uM after 120 mins by flow cytometric analysis relative to control; assay type: cell-based; details: 2 h
T1 sequence (Q9UNQ0 whole entry): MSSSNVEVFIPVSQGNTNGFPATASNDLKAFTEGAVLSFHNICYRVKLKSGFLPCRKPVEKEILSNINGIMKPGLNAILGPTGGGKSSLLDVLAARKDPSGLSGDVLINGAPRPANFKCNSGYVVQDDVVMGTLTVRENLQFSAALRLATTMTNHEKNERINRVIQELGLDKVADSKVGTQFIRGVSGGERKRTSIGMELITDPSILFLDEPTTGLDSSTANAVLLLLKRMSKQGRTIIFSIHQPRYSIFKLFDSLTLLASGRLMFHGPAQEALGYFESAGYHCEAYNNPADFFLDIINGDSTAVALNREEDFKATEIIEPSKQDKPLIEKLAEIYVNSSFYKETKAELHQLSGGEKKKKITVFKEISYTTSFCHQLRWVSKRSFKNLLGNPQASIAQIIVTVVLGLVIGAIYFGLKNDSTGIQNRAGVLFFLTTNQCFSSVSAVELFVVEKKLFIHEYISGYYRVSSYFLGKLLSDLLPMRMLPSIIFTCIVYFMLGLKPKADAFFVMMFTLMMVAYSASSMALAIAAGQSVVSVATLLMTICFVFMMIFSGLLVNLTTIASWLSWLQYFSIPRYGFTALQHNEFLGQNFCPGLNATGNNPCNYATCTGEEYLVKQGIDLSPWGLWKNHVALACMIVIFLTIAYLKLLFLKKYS

[2] = target: ATP-dependent translocase ABCB1 (Homo sapiens, UniProt P08183); assay: Inhibition of ABCB1 in human A2780/ADR cells at 5 to 10 uM preincubated for 30 mins followed by calcein AM addition and measured every 60 secs for 1 hr by fluorescence assay; assay type: cell-based
[3] = target: T1, Broad substrate specificity ATP-binding cassette transporter ABCG2; assay: Inhibition of ABCG2 (unknown origin) expressed in MDCK II BCRP cells assessed as effect on pheophorbide A accumulation after 120 mins by flow cytometric analysis; assay type: cell-based
[4] = target: Multidrug resistance-associated protein 1 (Homo sapiens, UniProt P33527); assay: Inhibition of ABCC1 in human […] cells at 5 to 10 uM preincubated for 30 mins followed by calcein AM addition and measured every 60 secs for 1 hr by fluorescence assay; assay type: cell-based
[5] = target: T2, ABCG2 (BCRP) (Homo sapiens, UniProt Q9UNQ0); assay: as §1; assay type: cell-based; details: MDCK II BCRP cells expressing ABCG2, probe pheophorbide A
T2 sequence (Q9UNQ0 whole entry): T1 sequence (Q9UNQ0 whole entry)

[6] = Growth inhibition of MDCK2 cells expressing BCRP (unknown origin) after 72 hrs by MTT assay; assay type: ADME, cell-based, Canis lupus familiaris, MDCK-II; details: dog
[7] = test system: ABCG2 (BCRP); assay: Therapeutic index, ratio of GI50 for MDCK2 cells expressing BCRP (unknown origin) to EC50 for ABCG2 (unknown origin) co-expressed in MDCK2 cells expressing BCRP (unknown origin); assay type: toxicity, cell-based; details: dog
[8] = Growth inhibition of MDCK2 cells after 72 hrs by MTT assay; assay type: cell-based, Canis lupus familiaris, MDCK-II; details: dog

Sequence of Multidrug resistance-associated protein 1 (P33527 whole entry): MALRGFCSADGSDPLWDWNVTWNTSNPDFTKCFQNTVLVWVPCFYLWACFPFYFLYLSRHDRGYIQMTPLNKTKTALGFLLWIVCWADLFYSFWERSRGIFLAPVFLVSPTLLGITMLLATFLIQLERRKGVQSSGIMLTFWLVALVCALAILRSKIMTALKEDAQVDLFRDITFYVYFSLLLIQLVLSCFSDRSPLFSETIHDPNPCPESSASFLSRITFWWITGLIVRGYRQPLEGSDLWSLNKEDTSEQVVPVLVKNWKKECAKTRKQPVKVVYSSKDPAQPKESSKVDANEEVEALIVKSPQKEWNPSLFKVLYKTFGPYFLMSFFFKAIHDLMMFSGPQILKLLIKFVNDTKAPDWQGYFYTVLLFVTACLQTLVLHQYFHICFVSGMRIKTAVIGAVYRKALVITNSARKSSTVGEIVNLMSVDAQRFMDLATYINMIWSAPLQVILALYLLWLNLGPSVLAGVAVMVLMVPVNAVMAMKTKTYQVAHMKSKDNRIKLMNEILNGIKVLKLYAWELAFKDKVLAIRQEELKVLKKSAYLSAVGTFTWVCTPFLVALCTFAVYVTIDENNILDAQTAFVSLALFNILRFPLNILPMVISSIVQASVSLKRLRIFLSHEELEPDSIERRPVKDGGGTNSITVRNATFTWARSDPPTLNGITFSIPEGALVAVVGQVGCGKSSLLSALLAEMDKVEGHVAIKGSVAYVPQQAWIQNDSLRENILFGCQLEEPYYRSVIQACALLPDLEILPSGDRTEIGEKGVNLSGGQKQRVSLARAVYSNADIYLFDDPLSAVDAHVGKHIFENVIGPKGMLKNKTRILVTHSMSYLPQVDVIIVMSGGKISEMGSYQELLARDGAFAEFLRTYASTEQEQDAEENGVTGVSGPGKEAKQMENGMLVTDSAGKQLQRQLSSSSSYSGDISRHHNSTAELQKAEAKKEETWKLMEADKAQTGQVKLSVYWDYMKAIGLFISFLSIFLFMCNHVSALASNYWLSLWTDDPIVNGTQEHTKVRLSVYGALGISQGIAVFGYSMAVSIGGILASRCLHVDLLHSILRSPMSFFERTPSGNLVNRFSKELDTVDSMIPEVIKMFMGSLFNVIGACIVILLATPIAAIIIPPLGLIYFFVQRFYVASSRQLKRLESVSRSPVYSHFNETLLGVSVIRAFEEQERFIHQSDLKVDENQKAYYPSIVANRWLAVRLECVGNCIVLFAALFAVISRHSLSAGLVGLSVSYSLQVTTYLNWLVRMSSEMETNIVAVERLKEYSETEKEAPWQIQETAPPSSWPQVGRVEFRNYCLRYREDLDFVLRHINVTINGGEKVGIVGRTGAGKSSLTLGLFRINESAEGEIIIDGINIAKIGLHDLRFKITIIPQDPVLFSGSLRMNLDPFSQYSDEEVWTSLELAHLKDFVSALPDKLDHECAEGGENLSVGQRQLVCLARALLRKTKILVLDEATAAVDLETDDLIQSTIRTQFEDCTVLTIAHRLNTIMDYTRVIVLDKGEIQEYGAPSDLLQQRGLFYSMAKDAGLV
Sequence of ATP-dependent translocase ABCB1 (P08183 whole entry): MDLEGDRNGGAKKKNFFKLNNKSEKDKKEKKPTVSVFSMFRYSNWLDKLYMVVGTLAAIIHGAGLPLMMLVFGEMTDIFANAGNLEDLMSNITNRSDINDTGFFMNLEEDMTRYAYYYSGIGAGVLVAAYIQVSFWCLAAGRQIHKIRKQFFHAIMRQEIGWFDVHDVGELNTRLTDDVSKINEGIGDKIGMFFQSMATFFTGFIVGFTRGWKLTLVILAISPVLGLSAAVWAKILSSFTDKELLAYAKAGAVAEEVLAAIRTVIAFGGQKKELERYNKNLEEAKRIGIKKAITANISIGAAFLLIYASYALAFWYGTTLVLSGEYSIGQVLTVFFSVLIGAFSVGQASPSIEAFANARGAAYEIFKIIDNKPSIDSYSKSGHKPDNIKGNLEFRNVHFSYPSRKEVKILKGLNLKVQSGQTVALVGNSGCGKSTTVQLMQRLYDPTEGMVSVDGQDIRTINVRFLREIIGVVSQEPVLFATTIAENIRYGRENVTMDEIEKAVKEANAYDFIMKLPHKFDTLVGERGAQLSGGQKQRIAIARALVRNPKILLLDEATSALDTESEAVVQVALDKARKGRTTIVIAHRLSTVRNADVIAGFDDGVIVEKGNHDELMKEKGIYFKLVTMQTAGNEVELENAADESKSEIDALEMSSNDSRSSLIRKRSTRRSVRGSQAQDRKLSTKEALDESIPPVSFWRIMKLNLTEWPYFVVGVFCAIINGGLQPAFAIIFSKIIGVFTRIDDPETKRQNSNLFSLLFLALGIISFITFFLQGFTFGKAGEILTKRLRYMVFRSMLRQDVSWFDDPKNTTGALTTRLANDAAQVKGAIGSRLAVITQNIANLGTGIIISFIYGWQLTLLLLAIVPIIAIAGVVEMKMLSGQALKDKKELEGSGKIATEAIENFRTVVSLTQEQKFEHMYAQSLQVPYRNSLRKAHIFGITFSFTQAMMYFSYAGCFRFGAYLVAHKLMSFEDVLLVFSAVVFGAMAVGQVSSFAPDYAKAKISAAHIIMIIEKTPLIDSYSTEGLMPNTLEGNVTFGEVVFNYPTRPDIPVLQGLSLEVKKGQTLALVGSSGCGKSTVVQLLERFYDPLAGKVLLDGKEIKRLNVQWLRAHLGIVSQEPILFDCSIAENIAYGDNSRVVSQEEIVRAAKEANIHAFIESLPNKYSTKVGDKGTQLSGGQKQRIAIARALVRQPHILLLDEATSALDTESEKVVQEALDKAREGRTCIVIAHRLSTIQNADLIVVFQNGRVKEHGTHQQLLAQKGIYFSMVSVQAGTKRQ

Structure (SMILES) | inhibition (INH) [1] | pIC50 [3] | inhibition at 2 h [5] [%] | further results
COc1cc(/C=C/C(=O)c2cccc(O)c2)cc(OC)c1OC |  | 5.37 | ≥ 25 | inhibition (INH) [2]: Not Active; inhibition (INH) [4]: Not Active
CCOc1ccc(/C=C/C(=O)c2ccc(O)cc2)cc1 |  | 5.19 | ≥ 25 | inhibition (INH) [2]: Not Active; inhibition (INH) [4]: Not Active
CCCOc1ccc(/C=C/C(=O)c2ccc(O)cc2)cc1 |  | 5.32 | ≥ 25 | inhibition (INH) [2]: Not Active; GI50 at 72 h [6]: 28.5 µM; inhibition (INH) [4]: Not Active; selectivity ratio [7]: 6; GI50 at 72 h [8]: 31.1 µM
O=C(/C=C/c1ccc(OCc2ccccc2)cc1)c1ccc(O)cc1 |  | 5.04 | ≥ 25 | inhibition (INH) [2]: Not Active; inhibition (INH) [4]: Not Active
O=C(COc1ccc(C(=O)/C=C/c2c(F)cccc2F)cc1)NCc1ccc2c(c1)OCO2 | Not Active |  |  | 
O=C(/C=C/c1ccc(OCc2ccc(Cl)cc2Cl)cc1)c1ccc(O)cc1 | Not Active |  |  | inhibition (INH) [2]: Not Active; inhibition (INH) [4]: Not Active
O=C(COc1c(-c2ccco2)oc2ccccc2c1=O)Nc1ccc2c(c1)COC2=O | Not Active |  |  | 
O=C(/C=C/c1ccccc1C(F)(F)F)c1ccc(O)cc1 |  | 5.31 | ≥ 25 | inhibition (INH) [2]: Not Active; inhibition (INH) [4]: Not Active
O=C(COc1c(-c2cccs2)oc2ccccc2c1=O)Nc1ccc2c(c1)COC2=O | Not Active |  |  | 
O=C(/C=C/c1cccs1)c1ccc(O)cc1 |  | 4.74 | ≥ 25 | inhibition (INH) [2]: Not Active; inhibition (INH) [4]: Not Active
O=C(/C=C/c1ccco1)c1ccc(O)cc1 | Not Active |  |  | inhibition (INH) [2]: Not Active; inhibition (INH) [4]: Not Active
COc1cc(-c2c(OCC(=O)Nc3cccc4ccccc34)oc3ccccc3c2=O)cc(OC)c1OC |  | 4.98 | ≥ 25 | 
O=C(/C=C/c1cccs1)c1ccccc1O |  | 4.98 | ≥ 25 | inhibition (INH) [2]: Not Active; inhibition (INH) [4]: Not Active
O=C(/C=C/c1ccco1)c1ccccc1O |  | 4.79 | ≥ 25 | inhibition (INH) [2]: Not Active; inhibition (INH) [4]: Not Active
COc1cc(C(=O)/C=C/c2cc(OC)c(OC)c(OC)c2)ccc1O |  | 5.71 | ≥ 25 | inhibition (INH) [2]: Not Active; GI50 at 72 h [6]: 9.38 µM; inhibition (INH) [4]: Not Active; selectivity ratio [7]: 4.8; GI50 at 72 h [8]: 7.56 µM
O=C(COc1c(-c2ccccc2)oc2ccccc2c1=O)Nc1ccc2c(c1)COC2=O |  | 4.88 | ≥ 25 | 
CCOc1ccc(/C=C/C(=O)c2ccc(OCC(=O)NCc3ccc4c(c3)OCO4)cc2)cc1 | Not Active |  |  | 
O=C(/C=C/c1ccc(OCc2ccc(Cl)cc2)cc1)c1ccc(O)cc1 |  | 4.70 | ≥ 25 | inhibition (INH) [2]: Not Active; inhibition (INH) [4]: Not Active
COc1ccc(-c2c(OCC(=O)Nc3ccc(Br)cc3)oc3ccccc3c2=O)cc1 | Not Active |  |  | 
Cc1ccc(-c2c(OCC(=O)Nc3ccc(Br)cc3)oc3ccccc3c2=O)cc1 | Not Active |  |  | 
O=C(/C=C/c1c(F)cccc1F)c1ccc(O)cc1 |  | 5.14 | ≥ 25 | inhibition (INH) [2]: Not Active; inhibition (INH) [4]: Not Active
CCCCOc1ccc(/C=C/C(=O)c2ccc(O)cc2)cc1 |  | 5.14 | ≥ 25 | inhibition (INH) [2]: Not Active; inhibition (INH) [4]: Not Active

More lines, main results first:

inhibition (INH) [1] | pIC50 [3] | inhibition at 2 h [5] [%] | Structure (SMILES) | further results
Not Active |  |  | O=C(COc1ccc(/C=C/C(=O)c2ccc(F)cc2)cc1)Nc1ccc2c(c1)COC2=O | 
Not Active |  |  | COc1ccc(-c2oc3ccccc3c(=O)c2OCC(=O)Nc2ccc3c(c2)COC3=O)cc1 | 
 | 5.22 | ≥ 25 | O=C(COc1cccc(C(=O)/C=C/c2ccccc2)c1)Nc1ccc2c(c1)COC2=O | GI50 at 72 h [6]: 16.6 µM; selectivity ratio [7]: 2.7; GI50 at 72 h [8]: 11.5 µM
Not Active |  |  | O=C(COc1ccc(C(=O)/C=C/c2ccccc2Cl)cc1)Nc1ccc2c(c1)COC2=O | 
 | 5.27 | ≥ 25 | COc1ccc(NC(=O)COc2ccc(C(=O)/C=C/c3ccco3)cc2)cc1OC | 
 | 5.16 | ≥ 25 | COc1ccc(NC(=O)COc2ccc(C(=O)/C=C/c3ccc(Cl)cc3)cc2)cc1OC | 
 | 4.96 | ≥ 25 | O=C(COc1ccc(C(=O)/C=C/c2c(F)cccc2F)cc1)Nc1ccc2c(c1)COC2=O | 
 | 5.07 | ≥ 25 | COc1cc(/C=C/C(=O)c2ccc(OCC(=O)Nc3ccc4c(c3)COC4=O)cc2)cc(OC)c1OC | 
Not Active |  |  | COc1ccc(/C=C/C(=O)c2ccc(OCC(=O)Nc3ccc4c(c3)COC4=O)cc2)cc1 | 
 | 5.16 | ≥ 25 | COc1cc(/C=C/C(=O)c2ccc(OCC(=O)NCc3ccc4c(c3)OCO4)cc2)cc(OC)c1OC | GI50 at 72 h [6]: 63.5 µM; selectivity ratio [7]: 9.2; GI50 at 72 h [8]: 61.5 µM
 | 4.94 | ≥ 25 | COc1cc(C(=O)/C=C/c2cc(OC)c(OC)c(OC)c2)ccc1OCC(=O)Nc1ccc2c(c1)COC2=O | 
Not Active |  |  | Cc1ccc(-c2oc3ccccc3c(=O)c2OCC(=O)Nc2ccc3c(c2)COC3=O)cc1 | 
Not Active |  |  | CCCCOc1ccc(/C=C/C(=O)c2ccc(OCC(=O)Nc3ccc4c(c3)COC4=O)cc2)cc1 | 
Not Active |  |  | O=C(COc1ccc(C(=O)/C=C/c2ccco2)cc1)Nc1ccc2c(c1)COC2=O | 
Not Active |  |  | COc1ccc(-c2oc3ccccc3c(=O)c2OCC(=O)Nc2ccc3c(c2)COC3=O)cc1OC | 
 | 5.00 | ≥ 25 | COc1ccc(/C=C/C(=O)c2ccc(OCC(=O)NCc3ccc4c(c3)OCO4)cc2)cc1 | 

inhibition (INH) [1] | pIC50 [3] | inhibition at 2 h [5] [%] | Structure (SMILES) | further results
 | 5.05 | ≥ 25 | COc1cc(-c2oc3ccccc3c(=O)c2OCC(=O)Nc2ccc3c(c2)COC3=O)cc(OC)c1OC | 
Not Active |  |  | COc1cccc(/C=C/C(=O)c2ccc(OCC(=O)Nc3ccc4c(c3)COC4=O)cc2)c1 | 
 | 4.70 | ≥ 25 | CCOc1ccc(/C=C/C(=O)c2ccc(OCC(=O)Nc3ccc4c(c3)COC4=O)cc2)cc1 | 
 | 5.21 | ≥ 25 | COc1ccc(NC(=O)COc2ccc(C(=O)/C=C/c3c(F)cccc3F)cc2)cc1OC | GI50 at 72 h [6]: 36.6 µM; selectivity ratio [7]: 6; GI50 at 72 h [8]: 36.2 µM
 | 5.18 | ≥ 25 | COc1ccc(/C=C/C(=O)c2ccc(OCC(=O)Nc3ccc4c(c3)COC4=O)cc2)cc1OC | 
Not Active |  |  | O=C(COc1ccc(C(=O)/C=C/c2ccc([N+](=O)[O-])cc2)cc1)Nc1ccc2c(c1)COC2=O | 
Not Active |  |  | O=C(COc1ccc(C(=O)/C=C/c2ccccc2)cc1)Nc1ccc2c(c1)COC2=O | 
 | 5.20 | ≥ 25 | COc1ccc(/C=C/C(=O)c2cccc(OCC(=O)Nc3ccc(OC)c(OC)c3)c2)cc1OC | 
Not Active |  |  | O=C(COc1ccc(C(=O)/C=C/c2cccs2)cc1)Nc1ccc2c(c1)COC2=O | 
Not Active |  |  | CCCOc1ccc(/C=C/C(=O)c2ccc(OCC(=O)Nc3ccc4c(c3)COC4=O)cc2)cc1 | 
 | 4.92 | ≥ 25 | COc1ccc(/C=C/C(=O)c2cccc(OCC(=O)Nc3ccc4c(c3)COC4=O)c2)cc1OC | 
 | 5.45 | ≥ 25 | COc1cccc(/C=C/C(=O)c2ccc(OCC(=O)Nc3ccc(OC)c(OC)c3)cc2)c1 | GI50 at 72 h [6]: 36.7 µM; selectivity ratio [7]: 10.3; GI50 at 72 h [8]: 33.2 µM
Not Active |  |  | O=C(COc1ccc(C(=O)/C=C/c2ccc(OCc3ccc(Cl)cc3Cl)cc2)cc1)Nc1ccc2c(c1)COC2=O | 
Not Active |  |  | O=C(COc1ccc(C(=O)/C=C/c2ccc(OCc3ccc(Cl)cc3)cc2)cc1)Nc1ccc2c(c1)COC2=O | 
Not Active |  |  | O=C(COc1ccc(C(=O)/C=C/c2ccc(OCc3ccccc3)cc2)cc1)Nc1ccc2c(c1)COC2=O | 
